From patent publication EP0471298B1, “Carbamoyl-1-(pyridinylalkyl)-1H-indoles, indolines and related analogs” (priority 1990, dated 1992)
Like-named read-outs stand apart in the source and are kept apart here.

Biological target: T1, Acetylcholinesterase (AChE) (Rattus norvegicus, UniProt P37136)
T1 construct: corpora striata dissected free, weighed and homogenized in 19 volumes; from tissue; host or cells: rat corpora striata (brain) homogenate, male Wistar rats
Assay: In vitro inhibition of acetylcholinesterase activity in rat striatum (modified Ellman method)
Assay type: biochemical
Description: Cholinesterases are found throughout the body, both in the brain and in serum. However, only brain acetylcholinesterease (AChE) distribution is correlated with central cholinergic innervation. […] We have determined in vitro inhibition of acetylcholinesterase activity in rat striatum according to the method described below.
In Vitro Inhibition of Acetylcholinesterase Activity in Rat Striatum
The method described below was used in this invention for assaying anticholinesterase activity. This is a modification of the method of Ellman et al., Biochem. Pharmacol. 7, 88 (1961).
• A. Reagents - • 1. 0.05 M Phosphate buffer, pH 7.2 • (a) 6.85 g NaH₂PO₄·H₂O/100 mi distilled H₂O • (b) 13.40 g Na₂HPO₄·7H₂O/100 ml distilled H₂O • (c) add (a) to (b) until pH reaches 7.2 • (d) Dilute 1:10 • 2. […] If active, IC₅₀ values are determined from the inhibitory activity of subsequent concentrations. • B. Tissue Preparation - Male Wistar rats are decapitated, brains rapidly removed, corpora striata dissected free, weighed and homogenized in 19 volumes (approximately 7 mg protein/ml) of 0.05 M phosphate buffer, pH 7.2, using a Potter-Elvehjem homogenizer. […] Assay Enzyme activity is measured with the Beckman DU-50 spectrophotometer. […] This program also calculates the rate of absorbance change for each cuvette. […]

T1 sequence (P37136 32-614): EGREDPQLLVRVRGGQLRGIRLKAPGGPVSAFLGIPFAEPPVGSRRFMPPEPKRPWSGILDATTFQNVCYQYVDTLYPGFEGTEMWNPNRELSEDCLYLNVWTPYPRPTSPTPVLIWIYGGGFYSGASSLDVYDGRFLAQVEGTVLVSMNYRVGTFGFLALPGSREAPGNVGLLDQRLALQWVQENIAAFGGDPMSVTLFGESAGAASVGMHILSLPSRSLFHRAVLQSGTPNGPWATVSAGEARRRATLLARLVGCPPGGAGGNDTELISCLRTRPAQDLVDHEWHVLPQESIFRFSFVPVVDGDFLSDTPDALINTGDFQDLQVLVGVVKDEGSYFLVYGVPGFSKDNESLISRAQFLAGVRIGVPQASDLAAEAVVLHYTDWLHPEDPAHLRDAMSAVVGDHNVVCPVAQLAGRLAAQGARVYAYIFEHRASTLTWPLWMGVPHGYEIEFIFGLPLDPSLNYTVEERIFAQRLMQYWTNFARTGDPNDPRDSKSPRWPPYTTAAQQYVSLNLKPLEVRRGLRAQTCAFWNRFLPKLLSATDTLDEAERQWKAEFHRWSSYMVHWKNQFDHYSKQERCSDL

SMILES	IC50 [µM]	IC50 (Brain acetylcholinesterase, rat striatum homogenate, preincubated 10 minutes at 37°C, acetylthiocholine 5 mM final, pH 7.2, read-out: Inhibitory Concentration IC₅₀) [µM]
CNC(=O)Oc1ccc2c(ccn2Cc2ccncc2)c1 [Example 1, 1-(4-Pyridinylmethyl)-1H-indol-5-yl methylcarbamate]	6.83	
O=C(NCc1ccccc1)Oc1ccc2c(ccn2Cc2ccncc2)c1 [Example 3, 1-(4-Pyridinylmethyl)-1H-indol-5-yl phenylmethylcarbamate]		12.5
